Source: article PMC4805082, “Seizure control by decanoic acid through direct AMPA receptor inhibition” (Brain, 2015)

Tests used:
AMPA receptor GluA1 = biological target: T1, AMPA receptor GluA1 (Homo sapiens, UniProt P42261); test: Two-electrode voltage clamp, homomeric GluA1 AMPA receptor expressed in Xenopus oocytes; assay type: cell-based
T1 construct: expressed in transfected cells; host or cells: Xenopus laevis oocytes injected with cRNA
Experimental: The AMPA receptor (flip isoform) cDNAs inserted in a SP6 polymerase expression vector (pSP6T) were a generous gift from Prof. Ralf Schoepfer (NPP, UCL). RNA was transcribed in vitro from MluI linearized transcripts using the SP6 Promega RiboMAX® RNA synthesis kit according to manufacturer’s protocols except for the addition of 0.75 mM capping nucleotide m^7G(5’)ppp(5’)G (Promega) and 1.6 mM GTP. cRNA concentrations and integrity were estimated by the intensity of fluorescence bands in RNA denaturating gels. AMPA receptor cRNAs were mixed in a nominal 1:1 ratio and ∼5 ng was injected per oocyte.
Xenopus laevis oocytes were purchased from the European Xenopus Resource Centre, University of Portsmouth. Stage V to VI oocytes were mechanically dissected and then subjected to gentle shaking for ∼30–50 min at room temperature with modified Barth’s solution (in mM): 88 NaCl, 1 KCl, 2.4 NaHCO3, 0.82 MgCl2, 0.77 CaCl2, 15 Tris-Cl, adjusted to pH 7.4 with NaOH (Sigma-Aldrich), supplemented with 50 IU/ml penicillin and 50 µg/ml streptomycin (Invitrogen) and 50 µg/ml tetracycline (Sigma-Aldrich) and 1% collagenase (type 1A). Healthy oocytes were manually defolliculated and the injections of cRNA for homomeric subunits alone (GluA1), or heteromeric mixtures of two subunits together (GluA1/GluA2 or GluA2/GluA3) were made using an automated Drummond Nanoinject II injector. The oocytes were then incubated at 17°C in modified Barth’s solution for at least 48 h before use in electrophysiological recordings.
Experiments were performed at room temperature (∼21–23°C). An oocyte was placed in a recording chamber (0.3–0.5 ml volume) and perfused with ND96 solution (96 mM NaCl, 2 mM KCl, 1.8 mM CaCI2, 1 mM MgCl2, 5 mM HEPES, with pH adjusted to 7.5). Current and voltage electrodes were filled with 300 mM KCl and made from thin-walled borosilicate glass (GC150TF-7.5, Harvard Apparatus) using a PC-10 electrode puller (Narashige Instruments) and had resistances of 0.5–2 MΩ. Oocytes were voltage-clamped to a holding potential of −50 mV or −60 mV using a Turbo TEC-03 amplifier (npi electronics). […]

[1] = design: method as in earlier work; conditions: average; children with intractable epilepsy on MCT diet; ref Haidukewych et al., 1982; Sills et al., 1986a; Dean et al., 1989; cited from earlier work
[2] = design: method as in Wlaz et al., 2012; conditions: mice, gastric gavage 30 mmol/kg; ref Wlaz et al., 2012; cited from earlier work
[3] = tested on: GABAA receptor mediated IPSCs in hippocampal CA1 pyramidal neurons; test: Whole-cell patch clamp, evoked GABAA receptor mediated IPSCs in CA1 pyramidal cells; assay type: cell-based, rat; conditions: 300 µM
Experimental: Male Sprague-Dawley rats (postnatal Days 19–30) were sacrificed using an overdose of isoflurane or pentobarbitone (500 mg/kg). After decapitation the brain was rapidly removed, the hippocampus or entorhinal cortex-hippocampus slices was dissected from the brain and […] thick transverse slices were prepared on a VT1200S vibratome (Leica) or Vibratome (Vibratome® 1500 sectioning system, Intracell). The slicing was performed in ice-cold sucrose-based solution containing (in mM): 75 sucrose, 87 NaCl, 22 glucose, 2.5 KCl, 7 MgCl2, 1.25 NaH2PO4, 0.5 CaCl2 and 25 NaHCO3, pH 7.4, 315–330 mOsm equilibrated with 95% O2 plus 5% CO2. […]
For electrophysiological recording, the slices were placed in a recording chamber constantly perfused with 32–34°C oxygenated artificial CSF solution using a gravity-driven perfusion system. […] Series resistance was monitored throughout experiments using a −5 mV step command and cells showing a >20% change in series resistance, a series of resistance of >20 MΩ or an unstable holding current were rejected. […] Inhibitory postsynaptic current (IPSCs) were recorded in the presence of DL-APV (100 µM), NBQX (10 µM) and CGP55845 (5 µM) to block NMDA-, AMPA- and GABAB-receptors, respectively. […]

T1 sequence (P42261 19-906 isoform P42261-2 limits assumed): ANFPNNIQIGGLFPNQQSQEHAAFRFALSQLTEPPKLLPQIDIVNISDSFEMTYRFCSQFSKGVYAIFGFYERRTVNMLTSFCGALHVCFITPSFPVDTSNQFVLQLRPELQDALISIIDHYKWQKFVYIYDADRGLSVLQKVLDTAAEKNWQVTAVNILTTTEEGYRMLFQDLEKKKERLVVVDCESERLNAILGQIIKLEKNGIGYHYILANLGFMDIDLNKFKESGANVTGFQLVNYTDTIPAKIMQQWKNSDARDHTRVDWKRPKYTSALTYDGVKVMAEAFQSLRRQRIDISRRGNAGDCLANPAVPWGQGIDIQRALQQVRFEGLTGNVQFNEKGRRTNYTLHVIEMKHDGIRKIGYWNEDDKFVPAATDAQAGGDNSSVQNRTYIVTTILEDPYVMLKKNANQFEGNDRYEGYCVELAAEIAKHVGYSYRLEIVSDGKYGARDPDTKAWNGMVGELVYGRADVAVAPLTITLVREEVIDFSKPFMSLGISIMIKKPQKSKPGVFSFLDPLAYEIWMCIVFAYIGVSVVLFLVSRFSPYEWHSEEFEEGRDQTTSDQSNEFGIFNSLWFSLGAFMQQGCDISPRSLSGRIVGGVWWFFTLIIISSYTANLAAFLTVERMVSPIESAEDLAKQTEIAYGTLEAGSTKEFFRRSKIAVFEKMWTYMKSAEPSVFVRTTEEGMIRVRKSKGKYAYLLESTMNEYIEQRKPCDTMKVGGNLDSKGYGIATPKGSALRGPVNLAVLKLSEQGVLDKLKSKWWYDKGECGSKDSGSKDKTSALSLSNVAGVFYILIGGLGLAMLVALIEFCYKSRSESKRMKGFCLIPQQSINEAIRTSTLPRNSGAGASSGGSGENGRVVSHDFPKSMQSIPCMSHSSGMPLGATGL

IC50 (AMPA receptor GluA1): 2090 µM
SMILES: CCCCCCCCCC(=O)O [decanoic acid]
serum concentration [1]: 156.7 µM
brain concentration [2]: up to 240 µM
brain concentration as share of serum levels [2]: 60–80%
effect on evoked IPSCs [3]: no significant effect
effect on 1/CV^2 for IPSCs ([3]; versus baseline, n = 6): no effect
